Results on 1 compound are retold here after PubChem BioAssay AID624142 (National Center for Advancing Translational Sciences (NCATS), 2012).

In this data set the test system is human liver microsomes, half-life, LC-MS/MS. As to the kind of experiment: qHTS Assay to Find Inhibitors of T. brucei phosphofructokinase: Human Liver Microsome Stability. The settings on record: at 1 µM; stronger effect = higher value.

What is called half-life is the time in which the quantity being followed falls by half. For the compound `O=C(Cc1ccc(Cl)c(Cl)c1)Nc1ccc(S(=O)(=O)Nc2ccon2)cc1`, the half-life was 5.5 h.
